Legend:
rat [1] = settings: Subchronic oral toxicity in rodents, sprague dawley, Gavage/Intubation, dose end: 13 week, group: systemic
rat [2] = settings: Fertility (Segment I), sprague dawley, Oral, Gavage/Intubation, dose end: 6 PND
dog [3] = settings: Chronic toxicity; beagle; Oral; Gavage/Intubation; dose end: 12 month; group: systemic; systemic / hematology / erythrocyte (rbc) count differential / erythrocyte (rbc) + systemic / hematology / hematocrit (hct) / hematocrit (…
rat [4] = settings: Prenatal developmental toxicity study, sprague dawley, Oral, Gavage/Intubation, dose end: 17 GD
rat [5] = settings: Sub-acute repeat dose toxicity, sprague dawley, Oral, Gavage/Intubation, dose end: 28 day, group: systemic
dog [6] = settings: Chronic toxicity; beagle; Oral; Gavage/Intubation; dose end: 6 month; group: systemic; systemic / hematology / anisocytosis / anisocytosis + systemic / hematology / jolly bodies / jolly bodies + systemic / hematology / myeloid/…
mouse = settings: Subchronic oral toxicity in rodents, cd1, Gavage/Intubation, dose end: 13 week, group: systemic
rabbit [7] = settings: Prenatal developmental toxicity study, himalayan, Oral, Gavage/Intubation, dose end: 18 GD, group: maternal
dog [8] = settings: Sub-acute repeat dose toxicity, beagle, Oral, Gavage/Intubation, dose end: 1 month, group: systemic
rabbit [9] = settings: Prenatal developmental toxicity study; himalayan; Oral; Gavage/Intubation; dose end: 12 GD; group: maternal; systemic / in life observation / body weight / body weight gain + systemic / in life observation / food consumption / food consumption
rabbit [10] = settings: Prenatal developmental toxicity study, himalayan, Oral, Gavage/Intubation, dose end: 18 GD
rat [11] = settings: Chronic toxicity; sprague dawley; Oral; Gavage/Intubation; dose end: 6 month; group: systemic; systemic / clinical chemistry / phosphorus / phosphorus + systemic / clinical chemistry / potassium / potassium + systemic / organ weight / …
[12] = systemic / clinical chemistry / phosphorus / phosphorus + systemic / clinical chemistry / potassium / potassium + systemic / clinical …
[13] = systemic / clinical chemistry / phosphorus / phosphorus + systemic / clinical chemistry / urea nitrogen / urea nitrogen + systemic / …
[14] = group: maternal, reproductive / reproductive performance / estrous cycle / corpora lutea + reproductive / reproductive performance / implantations / …
[15] = group: parental, systemic / in life observation / body weight / body weight gain + systemic / in life observation / clinical signs / fur (altered appearance…
[16] = group: parental, systemic / in life observation / body weight / body weight gain + systemic / in life observation / food consumption / food efficiency
[17] = group: developmental, developmental / developmental malformation / bone / delayed ossification + developmental / developmental malformation / bone / unossified
[18] = group: maternal, systemic / in life observation / body weight / body weight gain + systemic / in life observation / food consumption / food consumption
[19] = group: maternal, systemic / in life observation / body weight / body weight gain + systemic / in life observation / food consumption / food consumption + …
[20] = systemic / clinical chemistry / creatinine / creatinine + systemic / clinical chemistry / glucose / glucose + systemic / clinical chemistry…
[21] = systemic / clinical chemistry / creatinine / creatinine + systemic / clinical chemistry / potassium / potassium + systemic / clinical …
[22] = systemic / clinical chemistry / urea nitrogen / urea nitrogen + systemic / hematology / hemoglobin (hgb) / hemoglobin (hgb) + systemic / …
[23] = systemic / in life observation / body weight / body weight gain + systemic / in life observation / food consumption / food consumption
[24] = systemic / in life observation / body weight / body weight gain + systemic / in life observation / food consumption / food consumption + …
[25] = systemic / hematology / [other] / [other] + systemic / hematology / erythrocyte (rbc) count differential / erythrocyte (rbc) + systemic / …
[26] = systemic / hematology / erythrocyte (rbc) count differential / erythrocyte (rbc) + systemic / hematology / hematocrit (hct) / hematocrit (…
[27] = group: developmental, developmental / developmental malformation / limb / [other] + systemic / in life observation / body weight / fetal weight
[28] = group: maternal, reproductive / reproductive performance / aborted / aborted + reproductive / reproductive performance / premature delivery / premature …

CC(=O)S[C@H](C(=O)N[C@H]1Cc2ccccc2[C@H]2CCC[C@@H](C(=O)O)N2C1=O)C(C)C [Ilepatril]
LOAEL (rat [1]; [12]): > 1600 mg/kg/day
NOAEL (rat [1]; [12]): ≥ 1600 mg/kg/day
LEL (rat [1]; [13]): 400 mg/kg/day
NEL (rat [1]; [13]): < 400 mg/kg/day
LEL (rat [2]; [14]): 1000 mg/kg/day
LOAEL (rat [2]; [14]): > 1000 mg/kg/day
NEL (rat [2]; [14]): 100 mg/kg/day
NOAEL (rat [2]; [14]): ≥ 1000 mg/kg/day
LOAEL (rat [2]; [15]): > 1000 mg/kg/day
NOAEL (rat [2]; [15]): ≥ 1000 mg/kg/day
LEL (rat [2]; [16]): 10 mg/kg/day
NEL (rat [2]; [16]): < 10 mg/kg/day
LEL (dog [3]): 12 mg/kg/day
LOAEL (dog [3]): > 12 mg/kg/day
NEL (dog [3]): 6 mg/kg/day
NOAEL (dog [3]): ≥ 12 mg/kg/day
LEL (rat [4]; [17]): 300 mg/kg/day
LOAEL (rat [4]; [17]): 300 mg/kg/day
NEL (rat [4]; [17]): 30 mg/kg/day
NOAEL (rat [4]; [17]): 30 mg/kg/day
LEL (rat [4]; [18]): 300 mg/kg/day
LOAEL (rat [4]; [18]): 300 mg/kg/day
NEL (rat [4]; [19]): 30 mg/kg/day
NOAEL (rat [4]; [19]): 30 mg/kg/day
LOAEL (rat [5]; [20]): > 1000 mg/kg/day
NOAEL (rat [5]; [20]): ≥ 1000 mg/kg/day
LEL (rat [5]; [21]): 30 mg/kg/day
NEL (rat [5]; [21]): < 30 mg/kg/day
LEL (dog [6]): 30 mg/kg/day
LOAEL (dog [6]): > 30 mg/kg/day
NEL (dog [6]): 10 mg/kg/day
NOAEL (dog [6]): ≥ 30 mg/kg/day
LOAEL (mouse; [21]): > 1600 mg/kg/day
NOAEL (mouse; [21]): ≥ 1600 mg/kg/day
LEL (mouse; [22]): 400 mg/kg/day
NEL (mouse; [22]): < 400 mg/kg/day
LEL (rabbit [7]; [23]): 0.8 mg/kg/day
LOAEL (rabbit [7]; [23]): 0.8 mg/kg/day
NEL (rabbit [7]; [24]): 0.32 mg/kg/day
NOAEL (rabbit [7]; [24]): 0.32 mg/kg/day
LOAEL (dog [8]; [25]): 50 mg/kg/day
NOAEL (dog [8]; [25]): 10 mg/kg/day
LEL (dog [8]; [26]): 10 mg/kg/day
NEL (dog [8]; [26]): < 10 mg/kg/day
LEL (rabbit [9]): 0.8 mg/kg/day
LOAEL (rabbit [9]): > 2 mg/kg/day
NEL (rabbit [9]): 0.32 mg/kg/day
NOAEL (rabbit [9]): ≥ 2 mg/kg/day
LEL (rabbit [10]; group: developmental, developmental / developmental malformation / limb / [other]): 3.2 mg/kg/day
LOAEL (rabbit [10]; [27]): > 160 mg/kg/day
NEL (rabbit [10]; [27]): 1 mg/kg/day
NOAEL (rabbit [10]; [27]): ≥ 160 mg/kg/day
LOAEL (rabbit [10]; [28]): > 160 mg/kg/day
NOAEL (rabbit [10]; [28]): ≥ 160 mg/kg/day
LEL (rabbit [10]; [18]): 1 mg/kg/day
NEL (rabbit [10]; [18]): < 1 mg/kg/day
LEL (rat [11]): 10 mg/kg/day
LOAEL (rat [11]): > 1000 mg/kg/day
NEL (rat [11]): < 10 mg/kg/day
NOAEL (rat [11]): ≥ 1000 mg/kg/day

— EPA's ToxRefDB 2
